# Measurements published in patent publication US12593767B2, “Protoplast isolation and regeneration of plants” (The Regents of the University of California, priority 2019, dated 2026).
# Values joined by “and” are separate entries in the source; they are usually repeats but may differ in a detail not shown here. Identical values can stand only once. Like-named read-outs stand apart in the source and are kept apart here.
# Key:
# TS protoplast = experiment: Polyamines: callus colony formation from encapsulated protoplasts in 1103P feeder suspension; format: cell-based, grape; details: for # colonies/alginate bead: 14 days after encapsulation, beads 1-5; for # colonies/alginate bead, Average / # colonies, Total: 14 days; for # colonies, Total: total of 5 beads
# Protocol: We re-suspended embedded protoplasts in conditioned osmotically adjusted grape cell suspension cultures in 125 ml shake flasks and incubated them at 100 rpm and 25 degrees centigrade. In this system, we utilize a grape nurse suspension culture that is of a different genotype than the genotype used to generate the protoplasts. For example, we used 1103P conditioned cell suspension cultures for embedded Thompson Seedless protoplasts.
# Recently, we have replaced the use of the shake flasks with 60×15 mm petri plates. This format allows for easy observation of the protoplasts using an inverted microscope and aids sampling of beads to evaluate the fate of the embedded protoplasts. Beads are cultured in 3.5 ml of Lloyd and McCown minimal organics medium supplemented with 30 g/l sucrose, 10 mg/l Picloram and 2.0 mg/l TDZ, 0.4 M mannitol, 1,191 mg/l HEPES, 50 mM CaCl2, 5× antioxidant solution with 1.5 ml of conditioned 1103P cell suspension culture.
# We are testing the ability of these polyamines to increase the plating efficiency of encapsulated protoplast as well as increase the rate of cell division. Initially we tested 1.0 mM putrescine in combination with 0.0 or 0.1 mM spermidine since we have previously found these levels to be beneficial in other plant species.
# [1] = test system: protoplast-derived somatic embryos; experiment: Maintenance of embryo-containing beads on sorbitol-containing agar medium; format: cell-based, grape; details: beads maintained on agar-solidified medium containing sorbitol (50 g/l)
# Protocol: Using forceps, we manually transferred individual beads to a 100×20 mm petri dish containing 40 ml of Lloyd and McCown minimal organics medium supplemented with 20 g/l sucrose, 1 g/l casein, 222 mg/l CaCl2, without hormones or activated charcoal. We repeated this transfer/washing process two more times to eliminate any of the feeder suspension cells. We then transferred beads onto agar-solidified 100×20 mm feeder plates containing 40 ml of Lloyd and McCown minimal organics medium supplemented with 20 g/l sucrose, 50 g/l sorbitol, 1 g/l casein, 1 mM MES, 0.5 mg/l BAP and 0.1 mg/l NAA onto which 1.0 ml of a […] grape suspension culture is plated. The grape suspension culture medium consisted of WPM medium supplemented with 20 g/l sucrose 10 mg/l picloram and 2.0 […] mannitol, 222 mg/l CaCl2, 1 g/l casein, 1,191 mg/l HEPES and 2 g/l activated charcoal, pH 5.7. We placed an 85 mm Whatman filter paper over the plated suspension and a 70 mm Whatman filter paper on top of the 85 mm filter. We placed beads on top of the 70 mm filter paper. We add 1 ml Lloyd and McCown minimal organics medium supplemented with 30 g/l sucrose, 1 g/l casein, 1 mM MES, 10 mg/l picloram and 2.0 mg/l TDZ to each plate to prevent desiccation. We incubated the cultures at 26 degrees centigrade in the dark. After approximately 3-4 weeks, mini-calli developed into somatic embryos within the beads (FIG. 15). […]
# Merlot protoplasts = details: for Ave colonies per bead / Number of colonies, Total / Number of colonies per bead: + 1.0 mM PUT, 0.1 mM SPD; for Number of colonies, Total: total of 5 beads; for Number of colonies per bead: beads 1-5
# Protocol: I have developed and tested an antioxidant solution consisting of 100 mg/l ascorbic acid, 150 mg/l citric acid, 30 mg/l reduced glutathione and 100 mg/l L-cysteine (PTF AQ). I tested the effect of this antioxidant addendum on protoplast viability and division on Thompson seedless and Merlot protoplast culture. Protoplast were isolated and encapsulated in 1.6% calcium alginate beads. Calcium alginate beads from the same protoplast preparation were randomly transferred to shake flasks containing conditioned 0.4 M Pic/TDZ 1103P feeder cell suspensions with or without the addition of 1× or 5× of the antioxidant solutions. After 14 days, the osmotic strength of the feeder suspension was reduced from 0.4 M to 0.2 M mannitol. At day 35, I randomly harvested five beads per treatment and counted the number of mini calli per bead.
# [2] = SPD 0.0 mM, CAD 0.1 mM, + 1.0 mM putrescine, 0.1 mM spermidine, Experiment 19136
# [3] = SPD 0.0 mM, CAD 1.0 mM, + 1.0 mM putrescine, 0.1 mM spermidine, Experiment 19136
# [4] = SPD 0.1 mM, CAD 0.0 mM, + 1.0 mM putrescine, 0.1 mM spermidine, Experiment 19136
# [5] = SPD 0.1 mM, SPM 0.0 mM, + 1 mM putrescine, Experiment 19129
# [6] = SPD 1.0 mM, CAD 0.0 mM, + 1.0 mM putrescine, 0.1 mM spermidine, Experiment 19136
# [7] = SPD 1.0 mM, SPM 0.0 mM, + 1 mM putrescine, Experiment 19129
# [8] = SPD 0.0 mM, SPM 0.1 mM, + 1 mM putrescine, Experiment 19129
# [9] = SPD 0.0 mM, SPM 1.0 mM, + 1 mM putrescine, Experiment 19129
compound,measurement,setting,value
NCCCCCN [cadaverine],# colonies/alginate bead,"TS protoplast; SPD 0.0 mM, CAD 0.1 mM, + 1.0 mM putrescine, 0.1 mM spermidine, Experiment 19136, listed as CAD",100 colonies/alginate bead and 115 colonies/alginate bead and 92 colonies/alginate bead and 104 colonies/alginate bead and 95 colonies/alginate bead
same,"# colonies/alginate bead, Average",TS protoplast; [2],101.2 colonies/alginate bead
same,"# colonies, Total",TS protoplast; [2],506
same,# colonies/alginate bead,"TS protoplast; SPD 0.0 mM, CAD 1.0 mM, + 1.0 mM putrescine, 0.1 mM spermidine, Experiment 19136, listed as CAD",104 colonies/alginate bead and 82 colonies/alginate bead and 87 colonies/alginate bead and 92 colonies/alginate bead and 73 colonies/alginate bead
same,"# colonies/alginate bead, Average",TS protoplast; [3],87.6 colonies/alginate bead
same,"# colonies, Total",TS protoplast; [3],438
same,cell division or cells growth from grape protoplasts,"TS protoplast; cadaverine 0.1 or 1.0 mM, + 1.0 mM putrescine, 0.1 mM spermidine, 0.0-1.0 mM spermine",does not seem to enhance cell division or cells growth
NCCCCN [putrescine],callus colony formation,TS protoplast; 1.0 mM putrescine,stimulated callus colony formation
OC[C@@H](O)[C@@H](O)[C@H](O)[C@@H](O)CO [sorbitol],germination of embryos in beads,[1],will not germinate further and become dormant
NCCCCNCCCN [spermidine],"callus colony formation, addition to 1.0 mM putrescine",TS protoplast; 0.1 mM spermidine,did not enhance the response
same,# colonies/alginate bead,"TS protoplast; SPD 0.1 mM, CAD 0.0 mM, + 1.0 mM putrescine, 0.1 mM spermidine, Experiment 19136, listed as SPD",68 colonies/alginate bead and 79 colonies/alginate bead and 64 colonies/alginate bead and 65 colonies/alginate bead and 86 colonies/alginate bead
same,"# colonies/alginate bead, Average",TS protoplast; [4],72.4 colonies/alginate bead
same,"# colonies, Total",TS protoplast; [4],362
same,# colonies/alginate bead,"TS protoplast; SPD 0.1 mM, SPM 0.0 mM, + 1 mM putrescine, Experiment 19129, listed as SPD",91 colonies/alginate bead and 93 colonies/alginate bead and 120 colonies/alginate bead and 110 colonies/alginate bead
same,"# colonies/alginate bead, Average",TS protoplast; [5],101.4 colonies/alginate bead
same,"# colonies, Total",TS protoplast; [5],507
same,# colonies/alginate bead,"TS protoplast; SPD 1.0 mM, CAD 0.0 mM, + 1.0 mM putrescine, 0.1 mM spermidine, Experiment 19136, listed as SPD",133 colonies/alginate bead and 121 colonies/alginate bead and 115 colonies/alginate bead and 98 colonies/alginate bead
same,"# colonies/alginate bead, Average",TS protoplast; [6],120 colonies/alginate bead
same,"# colonies, Total",TS protoplast; [6],600
same,# colonies/alginate bead,"TS protoplast; SPD 1.0 mM, SPM 0.0 mM, + 1 mM putrescine, Experiment 19129, listed as SPD",81 colonies/alginate bead and 97 colonies/alginate bead and 79 colonies/alginate bead and 125 colonies/alginate bead and 89 colonies/alginate bead
same,"# colonies/alginate bead, Average",TS protoplast; [7],94.2 colonies/alginate bead
same,"# colonies, Total",TS protoplast; [7],471
NCCCNCCCCNCCCN [spermine],number and speed of mini-callus formation,Merlot protoplasts; Merlot derived protoplasts,significantly enhanced the number and speed of mini-callus formation
same,Ave colonies per bead,Merlot protoplasts; SPM 0.1 mM,0.2 colonies per bead
same,"Number of colonies, Total",Merlot protoplasts; SPM 0.1 mM,1
same,Ave colonies per bead,Merlot protoplasts; SPM 0.25 mM,0 colonies per bead
same,Number of colonies per bead,Merlot protoplasts; SPM 0.25 mM,0 colonies per bead
same,"Number of colonies, Total",Merlot protoplasts; SPM 0.25 mM,0
same,Ave colonies per bead,Merlot protoplasts; SPM 0.5 mM,0.2 colonies per bead
same,"Number of colonies, Total",Merlot protoplasts; SPM 0.5 mM,1
same,Ave colonies per bead,Merlot protoplasts; SPM 0.75 mM,0 colonies per bead
same,Number of colonies per bead,Merlot protoplasts; SPM 0.75 mM,0 colonies per bead
same,"Number of colonies, Total",Merlot protoplasts; SPM 0.75 mM,0
same,Ave colonies per bead,Merlot protoplasts; SPM 1.0 mM,6.2 colonies per bead
same,"Number of colonies, Total",Merlot protoplasts; SPM 1.0 mM,31
same,enhancement in growth,"TS protoplast; 0.1 mM spermine, + 1.0 mM putrescine",did not see any enhancement in growth
same,callus colony growth,"TS protoplast; 1.0 mM spermine, 21 days of culture, regardless of the level of CAD",significant enhancement in callus colony growth
same,number of protoplasts that divided and speed of protoplast derived callus formation,"TS protoplast; 1.0 mM spermine, + 1.0 mM putrescine, irrespective of the spermidine concentration",enhanced the number of protoplasts that divided and the speed of protoplast derived callus formation
same,# colonies/alginate bead,"TS protoplast; SPD 0.0 mM, SPM 0.1 mM, + 1 mM putrescine, Experiment 19129, listed as SPM",96 colonies/alginate bead and 81 colonies/alginate bead and 79 colonies/alginate bead and 59 colonies/alginate bead and 84 colonies/alginate bead
same,"# colonies/alginate bead, Average",TS protoplast; [8],79.8 colonies/alginate bead
same,"# colonies, Total",TS protoplast; [8],399
same,"# colonies/alginate bead, Average",TS protoplast; [9],205.8 colonies/alginate bead
same,"# colonies, Total",TS protoplast; [9],1029
same,number and speed of mini-callus formation,TS protoplast; Thompson seedless derived protoplasts,significantly enhanced the number and speed of mini-callus formation
